Results reported in patent US8182854B2, “Coffee drink composition” (Kao Corporation, priority 2004, dated 2012).
Entries after “also recorded” stand apart in the source; their conditions may differ.

Tested on: hydrogen peroxide in urine
Experiment: Amount of hydrogen peroxide in rat urine after forced p.o. administration (FOX assay)
Assay type: in vivo, SD rats
Description: (c) The coffees obtained above in (a) and (b) were each forcibly administered p.o. (10 mL/kg) to six-week-old male SD rats (n=4). Three hours after the administration, urine was collected and the amount of hydrogen peroxide in their urine was measured. The amount of hydrogen peroxide in urine was measured by FOX (ferrous ion oxidation-xylenol orange) assay. (b) To 7-week-old male SD rats (n=4), 2.4 g/kg of instant coffee (Nescafe decaffeinated) (1.6 mg/kg in terms of hydroxyhydroquinone) and 1.6 mg/kg of hydroxyhydroquinone were forcibly administered p.o, respectively. Prior to administration and three hours and six hours after administration, urine was collected from them and the amount of hydrogen peroxide in urine was measured as in Example 2. To seven-week-old male SD rats (n=3), hydroxyhydroquinone (0.1, 0.3, 1 and 3 mg/kg, respectively) was forcibly administered p.o. Prior to administration and three and six hours after administration, urine was collected from them and the amount of hydrogen peroxide in the urine was determined as in Example 2. (c) The coffees obtained above in (a) and (b) (each, 10 mL/kg) were forcibly administered p.o. to seven-week-old male SD rats (n=8). Prior to administration and three and six hours after the administration, urine was collected from them and the amount of hydrogen peroxide in the urine was measured as in Example 2.

In the case of `Oc1ccc(O)c(O)c1` [hydroxyhydroquinone], the “amount of hydrogen peroxide in urine” value (Example 3, FIG. 3, 7-week-old male SD rats, p.o., 2.4 g/kg instant coffee or 1.6 mg/kg hydroxyhydroquinone, three hours after administration) is reported as “significant increase”, the “amount of hydrogen peroxide in the body (urine)” value (Example 4, FIG. 4, seven-week-old male SD rats, hydroxyhydroquinone 0.1, 0.3, 1 and 3 mg/kg p.o., urine three and six hours after administration) is reported as “increases the generation amount of hydrogen peroxide in the body; also recorded: increases dose-dependently” and the “dose from which the amount of hydrogen peroxide in the body increases” value (Example 4, FIG. 4, seven-week-old male SD rats, p.o.) is reported as at least 0.3 mg/kg.
